Test results reported in ChEMBL document CHEMBL4385590, “A Survey of the Structures of US FDA Approved Combination Drugs” (J Med Chem, 2019).

Assay: Half-life in human serum administered once daily

half-life: 10 h
Compound: Nc1nc(=O)n([C@@H]2CS[C@H](CO)O2)cc1F [EMTRICITABINE]
